Assay results reported in ChEMBL document CHEMBL6087460, “Generating a Peptide Library Using the Repeats of Amino Acid Scaffolds Created by Sliding the Framework of a 7-mer Human Chemerin Segment and Discovery of Potent Antibacterial and Antimycobacterial Peptides” (J Med Chem, 2025).
The source made the active and inactive calls. The rule behind the calls is not given here. Where a SMILES comes first, the peptide text is derived from it.

Legend:
[1] = Drug localization in cytoplasm of Mycobacterium smegmatis at 1 ug/ml by confocal microscopy; format: ADME, subcellular; conditions: mycolicibacterium smegmatis; dose 1 µg/ml
[2] = Drug localization in cell membrane of Escherichia coli ATCC 25922 at 3 times MIC by confocal microscopy; format: ADME, cell membranes
Staphylococcus aureus [3] = assay: Bactericidal activity against Staphylococcus aureus ATCC 25923 incubated for 16 to 18 hrs; format: functional; conditions: time 16-18 hrs
Staphylococcus aureus [4] = assay: Bactericidal activity against Staphylococcus aureus ATCC 25923 at MIC incubated for 30 mins by time kill assay; format: functional, organism-based
Staphylococcus aureus [5] = assay: Antibacterial activity against methicillin-resistant Staphylococcus aureus 33591 incubated for 16 to 18 hrs by broth dilution assay; format: functional; conditions: time 16-18 hrs
[6] = Retention time of compound by RP-HPLC method; format: physicochemical
Escherichia coli [7] = assay: Antibacterial activity against Escherichia coli ATCC 25922 infected in BALB/c mouse assessed as bacterial count in kidney at 5 mg/kg, iv administered thrice at 1,3 and 5 hrs post-infection measured after 24 hrs post-last dose (Rvb ~ 1.8 x10^7 CFU/mL); format: functional; conditions: time 29 hrs
Staphylococcus aureus [8] = assay: Disruption of plasma membrane integrity in Staphylococcus aureus ATCC 25923 by SYTOX-Green uptake assay; format: functional, organism-based
[9] = test system: Mycolicibacterium smegmatis; assay: Antitubercular activity against Mycobacterium smegmatis incubated for 24 hrs by rezasurin dye based assay; format: functional
Escherichia coli [10] = assay: Antibacterial activity against Escherichia coli ATCC 25922 infected in BALB/c mouse assessed as bacterial load in blood at 5 mg/kg, iv administered thrice at 1,3 and 5 hrs post-infection measured after 24 hrs post-last dose (Rvb ~ 4 x10^6 CFU/mL); format: functional; conditions: time 29 hrs
Escherichia coli [11] = assay: Disruption of plasma membrane integrity in Escherichia coli ATCC 25922 by SYTOX-Green uptake assay; format: functional, organism-based
[12] = Toxicity in BALB/c mouse infected with Mycobacterium bovis BCG assessed as animal survival at 2.5 to 5 mg/kg, iv administered once a day for 2 weeks; format: organism-based; conditions: in vivo, 336 h, dose 2.5-5 mg/kg
Escherichia coli [13] = assay: Antibacterial activity against Escherichia coli ATCC 25922 incubated for 16 to 18 hrs by broth dilution assay; format: functional; conditions: time 16-18 hrs
[14] = Toxicity in BALB/c mouse infected with Escherichia coli ATCC 25922 assessed as animal survival at 5 mg/kg, iv administered thrice at 1,3 and 5 hrs post-infection measured after 7 days; format: organism-based; conditions: in vivo, 168 h, time 7 day
Pseudomonas aeruginosa = assay: Antibacterial activity against Pseudomonas aeruginosa ATCC BAA-427 incubated for 16 to 18 hrs by broth dilution assay; format: functional; conditions: time 16-18 hrs
Escherichia coli [15] = assay: Bactericidal activity against Escherichia coli ATCC 25922 incubated for 16 to 18 hrs; format: functional; conditions: time 16-18 hrs
Escherichia coli [16] = assay: Induction of cell membrane damage in Escherichia coli ATCC 25922 at 3 times MIC incubated for 60 mins by SEM analysis; format: functional, organism-based
Escherichia coli [17] = assay: Induction of resistance development in Escherichia coli ATCC 25922 assessed as fold increase in MIC at sub-MIC measured after 30 passages relative to control; format: functional
[18] = Toxicity in BALB/c mouse assessed as change in AST level at 15 mg/kg, iv administered thrice at 2 hrs interval measured after 7 days; format: organism-based; conditions: in vivo, 168 h, time 7 day
Staphylococcus aureus [19] = assay: Antibacterial activity against methicillin-resistant Staphylococcus aureus BAA-44 incubated for 16 to 18 hrs by broth dilution assay; format: functional; conditions: time 16-18 hrs
Staphylococcus aureus [20] = assay: Induction of cell membrane damage in Staphylococcus aureus ATCC 25923 at 3 times MIC incubated for 60 mins by SEM analysis; format: functional, organism-based
Klebsiella pneumoniae = assay: Antibacterial activity against Klebsiella pneumoniae ATCC 27736 incubated for 16 to 18 hrs by broth dilution assay; format: functional; conditions: time 16-18 hrs
[21] = Toxicity in BALB/c mouse assessed as animal survival at 15 mg/kg, iv administered thrice at 2 hrs interval measured after 7 days; format: organism-based; conditions: in vivo, 168 h, time 7 day
Staphylococcus aureus [22] = assay: Antibacterial activity against Staphylococcus aureus ATCC 25923 incubated for 16 to 18 hrs in presence of 10 percent human serum by broth dilution assay; format: functional; conditions: time 16-18 hrs
[23] = Stability in 10 percent human serum assessed as compound remaining measured after 60 mins by RP-HPLC analysis; format: ADME, cell-free; conditions: 10% human serum, read-out: Stability
Escherichia coli [24] = assay: Antibacterial activity against Escherichia coli ATCC 25922 incubated for 16 to 18 hrs in presence of 10 percent human serum by broth dilution assay; format: functional; conditions: time 16-18 hrs
[25] = Toxicity in BALB/c mouse infected with Escherichia coli ATCC 25922 assessed as animal survival at 2.5 mg/kg, iv administered thrice at 1,3 and 5 hrs post-infection measured after 7 days; format: organism-based; conditions: in vivo, 168 h, time 7 day
[26] = Toxicity in BALB/c mouse assessed as change in ALT level at 15 mg/kg, iv administered thrice at 2 hrs interval measured after 7 days; format: organism-based; conditions: in vivo, 168 h, time 7 day
[27] = Hemolytic activity in human RBC measured after 40 mins by absorbance based assay; format: toxicity, cell-based, Erythrocyte; conditions: human red blood cells
Staphylococcus aureus [28] = assay: Induction of resistance development in methicillin-resistant Staphylococcus aureus 33591 assessed as fold increase in MIC at sub-MIC measured after 30 passages relative to control; format: functional
[29] = Toxicity in mouse assessed as change in serum AST level at 15 mg/kg, iv administered each day for 5 days measured after 7 days post-last dose; format: organism-based; conditions: in vivo, 120 h, time 5 day
Escherichia coli [30] = assay: Disruption of membrane integrity in Escherichia coli ATCC 25922 by PI staining based analysis; format: functional, organism-based
Staphylococcus aureus [31] = assay: Bactericidal activity against Staphylococcus aureus ATCC 25923 at MIC incubated for 45 mins by time kill assay; format: functional, organism-based
Escherichia coli [32] = assay: Induction of membrane depolarization in Escherichia coli ATCC 25922 by diSC3-5 dye based analysis; format: functional, organism-based
[33] = Toxicity in mouse assessed as animal survival at 15 mg/kg, iv administered each day for 5 days measured after 7 days post-last dose; format: organism-based; conditions: in vivo, 120 h, time 5 day
Staphylococcus aureus [34] = assay: Induction of membrane depolarization in Staphylococcus aureus ATCC 25923 by diSC3-5 dye based analysis; format: functional, organism-based
Staphylococcus aureus [35] = assay: Antibacterial activity against Staphylococcus aureus ATCC 25923 incubated for 16 to 18 hrs by broth dilution assay; format: functional; conditions: time 16-18 hrs
Escherichia coli [36] = assay: Antibacterial activity against Escherichia coli ATCC 25922 infected in BALB/c mouse assessed as bacterial count in blood at 5 mg/kg, iv administered thrice at 1,3 and 5 hrs post-infection measured after 24 hrs post-last dose (Rvb ~ 9.6 x10^6 CFU/mL); format: functional; conditions: time 29 hrs
[37] = Hemolytic activity in human RBC assessed as disruption of membrane integrity by Alexa Fluor-Annexin V staining based analysis; format: toxicity, cell-based; conditions: erythrocyte
Escherichia coli [38] = assay: Bactericidal activity against Escherichia coli ATCC 25922 at MIC incubated for 45 mins by time kill assay; format: functional, organism-based
[39] = Toxicity in mouse assessed as change in serum ALT level at 15 mg/kg, iv administered each day for 5 days measured after 7 days post-last dose; format: organism-based; conditions: in vivo, 120 h, time 5 day
[40] = test system: Mycolicibacterium smegmatis; assay: Antimycobacterial activity against Mycobacterium smegmatis assessed as reduction in bacterial growth at 2 times MIC pretreated for 1 hr followed by compound removal and subsequent culturing in fresh media without compound for 24 hrs measured after 4 days; format: functional, organism-based
Escherichia coli [41] = assay: Antibacterial activity against Escherichia coli ATCC 25922 infected in BALB/c mouse assessed as bacterial count in liver at 5 mg/kg, iv administered thrice at 1,3 and 5 hrs post-infection measured after 24 hrs post-last dose (Rvb ~ 2.3 x10^7 CFU/mL); format: functional; conditions: time 29 hrs
Escherichia coli [42] = assay: Bactericidal activity against Escherichia coli ATCC 25922 at MIC incubated for 30 mins by time kill assay; format: functional, organism-based
Bacillus subtilis = assay: Antibacterial activity against Bacillus subtilis 6633 incubated for 16 to 18 hrs by broth dilution assay; format: functional; conditions: time 16-18 hrs
Escherichia coli [43] = assay: Antibacterial activity against Escherichia coli ATCC 25922 infected in BALB/c mouse assessed as bacterial count in spleen at 5 mg/kg, iv administered thrice at 1,3 and 5 hrs post-infection measured after 24 hrs post-last dose (Rvb ~ 1.9 x10^7 CFU/mL); format: functional; conditions: time 29 hrs
[44] = Cytotoxicity against mouse 3T3-L1 cells assessed as cell viability at 100 uM incubated for 24 hrs by MTT assay relative to control; format: toxicity, cell-based; conditions: 3T3-L1 cells, read-out: Activity
Staphylococcus aureus [45] = assay: Induction of resistance development in Staphylococcus aureus ATCC 25923 assessed as fold increase in MIC at sub-MIC measured after 30 passages relative to control; format: functional
[46] = Cytotoxicity against rat L6 cells assessed as cell viability at 100 uM incubated for 24 hrs by MTT assay relative to control; format: toxicity, cell-based; conditions: L6 cells, read-out: Activity
[47] = test system: Mycolicibacterium smegmatis; assay: Disruption of cell membrane integrity in Mycobacterium smegmatis incubated for 2 hrs by EtBr uptake assay; format: functional, organism-based
Staphylococcus aureus [48] = assay: Induction of resistance development in methicillin-resistant Staphylococcus aureus BAA-44 assessed as fold increase in MIC at sub-MIC measured after 30 passages relative to control; format: functional
Staphylococcus aureus [49] = assay: Disruption of membrane integrity in Staphylococcus aureus ATCC 25923 by PI staining based analysis; format: functional, organism-based

CC(C)C[C@H](NC(=O)[C@@H](NC(=O)c1cc(C(=O)O)ccc1-c1c2ccc(=[N+](C)C)cc-2oc2cc(N(C)C)ccc12)C(C)C)C(=O)NCC(=O)N[C@@H](CCCNC(=N)N)C(=O)N[C@H](C(=O)N[C@@H](CC(C)C)C(=O)NCC(=O)N[C@@H](CCCNC(=N)N)C(=O)N[C@H](C(=O)N[C@@H](CC(C)C)C(=O)NCC(=O)N[C@@H](CCCNC(=N)N)C(=O)N[C@H](C(=O)N[C@@H](CC(C)C)C(=O)NCC(=O)N[C@@H](CCCNC(=N)N)C(=O)O)C(C)C)C(C)C)C(C)C.[Cl-] (HELM PEPTIDE1{[CN(C)c1ccc2c(-c3ccc(C(=O)O)cc3C(=O)[*:2])c3ccc(=[N+](C)C)cc-3oc2c1].V.L.G.R.V.L.G.R.V.L.G.R.V.L.G.R}$$$$V2.0)
Drug uptake [1]: Active
Drug uptake [2]: Active

H-GRLVGRLVGRLVGRLV-OH
MBC (Staphylococcus aureus [3]): 1.8 µM
Activity (Staphylococcus aureus [4]): Active; Emerged As Swiftest Molecule
MIC (Staphylococcus aureus [5]): 1.8 µM
Retention_time [6]: 20.24 min
Activity (Escherichia coli [7]): 2908 CFU/ml
Activity (Staphylococcus aureus [8]): Active
MIC [9]: 2.5 µM
Activity (Escherichia coli [10]): ~800 CFU/ml
Activity (Escherichia coli [11]): Active
Activity [12]: Non-toxic
MIC (Escherichia coli [13]): 1.8 µM
Survival [14]: 100%
MIC (Pseudomonas aeruginosa): 7.3 µM
MBC (Escherichia coli [15]): 1.8 µM
Activity (Escherichia coli [16]): Active
fold change (FC) (Escherichia coli [17]): 2
Activity [18]: Non-toxic
MIC (Staphylococcus aureus [19]): 3.6 µM
Activity (Staphylococcus aureus [20]): Active
MIC (Klebsiella pneumoniae): 3.6 µM
Activity [21]: Non-toxic
MIC (Staphylococcus aureus [22]): 1.8 µM
remaining at 1 h [23]: ~80%
MIC (Escherichia coli [24]): 1.8 µM
Survival [25]: 60%
Activity [26]: Non-toxic
HC50 at 40 min [27]: 2 mM
fold change (FC) (Staphylococcus aureus [28]): 2
Activity [29]: Non-toxic
Activity (Escherichia coli [30]): Active
Activity (Staphylococcus aureus [31]): Active
Activity (Escherichia coli [32]): Active
Activity [33]: Non-toxic
Activity (Staphylococcus aureus [34]): Active
MIC (Staphylococcus aureus [35]): 1.8 µM
Activity (Escherichia coli [36]): 1020 CFU/ml
Activity [37]: Non-toxic
Activity (Escherichia coli [38]): Active
Activity [39]: Non-toxic
Activity [40]: Active
Activity (Escherichia coli [41]): 1864 CFU/ml
Activity (Escherichia coli [42]): Active; Emerged As Swiftest Molecule
MIC (Bacillus subtilis): 1.8 µM
Activity (Escherichia coli [43]): 1652 CFU/ml
viability at 24 h, 100 µM [44]: 75%
fold change (FC) (Staphylococcus aureus [45]): 2
viability at 24 h, 100 µM [46]: 75%
Activity [47]: inactive
fold change (FC) (Staphylococcus aureus [48]): 2
Activity (Staphylococcus aureus [49]): Active
